Consider 7 molecules from article PMC13110364, “Design, Synthesis, and Biological Evaluation of Novel Triazine‐Based Dual Histone Deacetylase/phosphatidylinositol 3‐kinase Inhibitors for Breast Cancer Therapy” (Chemmedchem, 2026).

Molecules are shown by their SMILES.

Series [1] relates to HDAC. Further details: method as in earlier work. To be noted: cited from earlier work.
Series [2] addresses PI3Kα (Homo sapiens, UniProt P42336). Further details: method as in earlier work. The following applies: cited from earlier work.
In series [3] the test system is JIMT1 breast cancer cells. In words: MTS cell viability assay, JIMT1. It counts as cell-based. The following applies: Homo sapiens, JIMT-1, 72 h treatment. As for the experimental part:
(§1) The cell viability effects of compounds 5a–5f were assessed in LY2, JIMT1, and MDA‐MB‐231 breast cancer cell lines using the 3‐(4,5‐dimethylthiazol‐2‐yl)‐5‐(3‐carboxymethoxyphenyl)‐2‐(4‐sulfophenyl)‐2H‐tetrazolium (MTS) assay. The MTS assay measures metabolic viability and serves as a first‐pass screen.
(§2) JIMT‐1 (DSMZ ACC 589) and MDA‐MB‐231 (ATCC HTB‐26) breast cancer cell lines were maintained in Dulbecco's Modified Eagle Medium (DMEM) High Glucose with L‐glutamine (D5796, Sigma) supplemented with 10% fetal calf serum. MCF7‐derivative LY2 breast cancer cells were previously described (REF: PMID: 33420368). LY2 cells were cultured in phenol red‐free MEM (PRF‐MEM; 51 200‐046, Gibco) supplemented with 10% charcoal dextran‐stripped fetal calf serum (CDS‐FCS; F6765, Merck), 2 mmol/L L‐glutamine (G7513, Merck), and 10^−8 mol/L 4‐hydroxytamoxifen (4‐OHT; H7904, Merck). All cell lines were maintained at 37°C in a humidified incubator with 5% CO2 and regularly authenticated and tested for mycoplasma.
(§3) Cell viability was evaluated in response to increasing concentrations of 5a‐5f (0.3, 1, 3, 10, and 30 μM) or vehicle control (0.1% DMSO). LY2, JIMT1, and MDA‐MB‐231 cells were seeded at a density of 2,500 cells per well in 96‐well plates with a total volume of 100 μL per well. Prior to treatment, cells were serum‐deprived for 24 h. Following serum depletion, cells were treated in complete growth medium for 72 h. Cell viability was assessed using the MTS assay (G1111, Promega) according to the manufacturer's instructions. Absorbance was measured at 495 nm using a BioTek Synergy HTX Multi‐Mode Microplate Reader (Agilent). Results were normalized to the vehicle control (DMSO), and the half‐maximal inhibitory concentration (IC50) of the inhibitors was determined by nonlinear regression (curve fit) using a four‐parameter variable slope model.

The subject of series [4] is LY2 breast cancer cells. In words: MTS cell viability assay, LY2. It counts as cell-based. To be noted: 72 h treatment. As for the experimental part: as §1, §2, §3
In general terms: Formazan colour is commonly taken as a measure of viable cells.

The subject of series [5] is MDA‐MB‐231 triple‐negative breast cancer cell line. Nature of the series: MTS cell viability assay, MDA-MB-231. It counts as cell-based. To be noted: Homo sapiens, MDA-MB-231, 72 h, MDA‐MB‐231 cells, 72 h treatment. As for the experimental part:
as §1, §2, §3

Series [6] relates to HDAC9. Further details: method as in PMID 22693356. To be noted: cited from earlier work.
Series [7] has as its system HDAC2. Further details: method as in PMID 22693356. The following applies: cited from earlier work.
Series [8] deals with HDAC5. The arrangement: method as in PMID 22693356. The following applies: cited from earlier work.
Series [9] has as its system MCF‐10A cells. Nature of the series: Cell viability in nontransformed cell line MCF-10A. The following applies: Homo sapiens. It counts as cell-based. The text has this:
Thus, further optimization will be required to improve the therapeutic index.
FIGURE 5 Dose‐dependent effects of compound treatment (5b and 5f) on nontransformed breast cell viability across MCF‐10A.

Series [10] has as its target HDAC1 (Homo sapiens, UniProt Q13547). The arrangement: method as in PMID 32022441. To be noted: cited from earlier work.
Details of series [11]: method as in PMID 32022441. The following applies: previous studies of the authors ref 25; cited from earlier work.
Series [12] addresses HDAC4 (Homo sapiens, UniProt P56524). The arrangement: method as in PMID 32022441. The following applies: cited from earlier work.

PI3Kα, sequence (P42336 whole entry): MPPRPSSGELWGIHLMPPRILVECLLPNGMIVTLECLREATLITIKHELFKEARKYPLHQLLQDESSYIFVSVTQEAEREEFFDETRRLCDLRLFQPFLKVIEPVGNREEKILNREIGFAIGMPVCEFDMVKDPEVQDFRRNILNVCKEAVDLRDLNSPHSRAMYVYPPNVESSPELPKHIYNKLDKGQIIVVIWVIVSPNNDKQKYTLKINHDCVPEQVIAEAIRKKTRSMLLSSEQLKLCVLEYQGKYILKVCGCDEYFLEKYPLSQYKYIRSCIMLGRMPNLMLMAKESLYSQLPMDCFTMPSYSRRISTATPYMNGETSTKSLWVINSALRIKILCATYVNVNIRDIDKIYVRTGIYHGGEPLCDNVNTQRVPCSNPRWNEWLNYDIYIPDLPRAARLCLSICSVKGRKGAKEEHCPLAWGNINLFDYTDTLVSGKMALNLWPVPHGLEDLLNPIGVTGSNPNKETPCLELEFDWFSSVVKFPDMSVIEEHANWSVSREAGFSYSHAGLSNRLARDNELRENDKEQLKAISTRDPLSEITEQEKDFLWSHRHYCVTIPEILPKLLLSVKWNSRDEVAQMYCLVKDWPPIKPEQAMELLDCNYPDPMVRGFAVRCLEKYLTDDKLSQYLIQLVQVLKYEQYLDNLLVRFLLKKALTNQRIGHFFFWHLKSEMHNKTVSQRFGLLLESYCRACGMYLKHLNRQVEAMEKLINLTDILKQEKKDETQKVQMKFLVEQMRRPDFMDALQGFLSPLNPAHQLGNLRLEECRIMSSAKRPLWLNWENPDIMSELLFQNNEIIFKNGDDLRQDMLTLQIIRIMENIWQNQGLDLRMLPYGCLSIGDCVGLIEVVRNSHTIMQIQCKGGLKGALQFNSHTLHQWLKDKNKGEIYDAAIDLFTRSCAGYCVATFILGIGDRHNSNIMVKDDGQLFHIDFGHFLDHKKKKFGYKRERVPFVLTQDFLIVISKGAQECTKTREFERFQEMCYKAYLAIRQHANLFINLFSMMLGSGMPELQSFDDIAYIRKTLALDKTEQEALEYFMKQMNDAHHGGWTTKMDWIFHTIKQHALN
PI3Kα, sequence (P27986 whole entry partner): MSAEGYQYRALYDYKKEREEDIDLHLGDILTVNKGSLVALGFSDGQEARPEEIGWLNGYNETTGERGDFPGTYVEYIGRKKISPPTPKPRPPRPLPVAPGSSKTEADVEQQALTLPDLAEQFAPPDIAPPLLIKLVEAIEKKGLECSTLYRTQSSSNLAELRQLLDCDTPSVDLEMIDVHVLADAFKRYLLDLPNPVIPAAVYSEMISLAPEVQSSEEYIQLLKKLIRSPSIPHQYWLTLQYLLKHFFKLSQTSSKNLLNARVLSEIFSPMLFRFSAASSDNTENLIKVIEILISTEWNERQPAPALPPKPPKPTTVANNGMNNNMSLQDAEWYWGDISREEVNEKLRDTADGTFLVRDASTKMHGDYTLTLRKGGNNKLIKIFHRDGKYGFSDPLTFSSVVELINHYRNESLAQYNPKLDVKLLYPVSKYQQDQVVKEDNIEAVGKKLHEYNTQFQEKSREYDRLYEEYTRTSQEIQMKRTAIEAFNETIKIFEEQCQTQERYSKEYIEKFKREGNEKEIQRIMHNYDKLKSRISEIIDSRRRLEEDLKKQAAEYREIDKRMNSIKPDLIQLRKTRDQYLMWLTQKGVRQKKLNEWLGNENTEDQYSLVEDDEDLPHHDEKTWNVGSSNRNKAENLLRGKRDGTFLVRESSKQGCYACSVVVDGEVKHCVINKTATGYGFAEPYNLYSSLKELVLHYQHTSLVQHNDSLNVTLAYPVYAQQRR
HDAC1, sequence (Q13547 whole entry): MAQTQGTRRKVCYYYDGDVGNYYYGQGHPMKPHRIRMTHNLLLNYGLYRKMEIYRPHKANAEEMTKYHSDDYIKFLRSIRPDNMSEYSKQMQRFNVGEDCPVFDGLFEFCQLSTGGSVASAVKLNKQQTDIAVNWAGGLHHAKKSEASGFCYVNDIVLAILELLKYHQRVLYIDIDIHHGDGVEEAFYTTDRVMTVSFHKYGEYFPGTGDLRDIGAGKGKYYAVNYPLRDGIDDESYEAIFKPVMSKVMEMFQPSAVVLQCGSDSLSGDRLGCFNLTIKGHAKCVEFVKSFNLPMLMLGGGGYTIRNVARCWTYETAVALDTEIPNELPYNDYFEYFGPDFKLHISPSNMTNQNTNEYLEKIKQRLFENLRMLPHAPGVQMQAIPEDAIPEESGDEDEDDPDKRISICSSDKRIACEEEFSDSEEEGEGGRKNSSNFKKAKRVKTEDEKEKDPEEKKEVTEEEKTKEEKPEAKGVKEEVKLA
HDAC4, sequence (P56524 whole entry): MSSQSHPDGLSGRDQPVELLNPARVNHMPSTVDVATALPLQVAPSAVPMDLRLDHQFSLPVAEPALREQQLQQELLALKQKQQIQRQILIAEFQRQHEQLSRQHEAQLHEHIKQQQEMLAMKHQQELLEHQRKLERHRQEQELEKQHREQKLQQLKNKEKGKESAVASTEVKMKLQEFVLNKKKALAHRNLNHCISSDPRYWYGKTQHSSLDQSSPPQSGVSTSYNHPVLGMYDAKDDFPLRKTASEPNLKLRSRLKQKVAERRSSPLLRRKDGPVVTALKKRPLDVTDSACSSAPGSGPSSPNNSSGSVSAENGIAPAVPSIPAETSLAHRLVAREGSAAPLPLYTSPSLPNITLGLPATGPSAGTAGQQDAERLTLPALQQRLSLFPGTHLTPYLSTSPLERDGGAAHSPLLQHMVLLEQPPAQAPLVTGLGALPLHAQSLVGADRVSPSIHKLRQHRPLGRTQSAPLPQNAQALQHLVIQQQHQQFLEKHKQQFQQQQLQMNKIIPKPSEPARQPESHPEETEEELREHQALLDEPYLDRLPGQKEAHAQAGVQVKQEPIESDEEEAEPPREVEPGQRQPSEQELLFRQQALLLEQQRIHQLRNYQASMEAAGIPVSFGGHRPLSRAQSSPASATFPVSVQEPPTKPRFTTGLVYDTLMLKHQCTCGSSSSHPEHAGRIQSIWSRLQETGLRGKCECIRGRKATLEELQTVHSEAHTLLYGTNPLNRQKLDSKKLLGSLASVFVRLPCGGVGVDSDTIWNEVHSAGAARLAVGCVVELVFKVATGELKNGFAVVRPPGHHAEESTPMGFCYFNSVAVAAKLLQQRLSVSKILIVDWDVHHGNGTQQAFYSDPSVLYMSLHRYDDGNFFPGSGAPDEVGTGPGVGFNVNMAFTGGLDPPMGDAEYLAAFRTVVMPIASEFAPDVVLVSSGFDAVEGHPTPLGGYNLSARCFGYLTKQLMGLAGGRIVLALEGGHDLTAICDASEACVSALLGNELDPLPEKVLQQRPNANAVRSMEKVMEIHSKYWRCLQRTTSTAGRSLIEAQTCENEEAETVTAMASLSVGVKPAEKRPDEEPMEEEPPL

Broadly, the IC50 is the concentration that inhibits the measured activity by half. For the molecule `CNc1ccc(-c2nc(N3CCOCC3)c3sc(CN(C)c4ncc(C(=O)NO)cn4)cc3n2)cn1` [Ifupinostat, ifupinostat], the IC50 in series [1] is 100 to 1000 nM; in series [2], less than 100 nM.
As for `O=C(NO)c1ccc(CNc2nc(-c3ccccc3)nc(N3CCOCC3)n2)cc1` [Compound 5a, N‐Hydroxy‐4‐(((4‐Morpholino‐6‐Phenyl‐1,3,5‐Triazin‐2‐yl)Amino)Methyl)Benzamide], the figures for the 50% inhibitory concentration (IC50) in series [3], in series [4] and in series [5] were 8.58 ± 0.14 µM, 10.9 µM and 5.8 ± 0.6 µM, respectively.
Turning to `Nc1ccc(-c2nc(NCc3ccc(C(=O)NO)cc3)nc(N3CCOCC3)n2)cn1` [Compound 5d, 4‐(((4‐(6‐Aminopyridin‐3‐yl)‐6‐Morpholino‐1,3,5‐Triazin‐2‐yl)Amino)Methyl)‐N‐Hydroxybenzamide], the IC50 in [3] worked out at 8.97 ± 2.64 µM; in series [4], 10.3 ± 3 µM; in series [5], 13.1 ± 6.08 µM.
Taken in the same sequence, the figures for `O=C(NO)c1ccc(CNc2nc(-c3cccnc3)nc(N3CCOCC3)n2)cc1` [Compound 5c, N‐Hydroxy‐4‐(((4‐Morpholino‐6‐(pyridin‐3‐yl)−1,3,5‐Triazin‐2‐yl)Amino)Methyl)Benzamide] were 10.5 µM, 10 µM and 9.43 µM.
`Nc1ncc(-c2nc(NCc3ccc(C(=O)NO)cc3)nc(N3CCOCC3)n2)cn1` [Compound 5e, 4‐(((4‐(2‐Aminopyrimidin‐5‐yl)‐6‐Morpholino‐1,3,5‐Triazin‐2‐yl)Amino)Methyl)‐N‐Hydroxybenzamide]: the IC50 is 15.6 ± 6.48 µM in series [3], 8.84 ± 3.47 µM in series [4] and 10.4 µM in series [5].
`COc1ccc(-c2nc(N3CCOCC3)c3sc(CN(C)c4ncc(C(=O)NO)cn4)cc3n2)cn1` [Fimepinostat, fimepinostat, reference compound]: the half-maximal inhibitory concentration (IC50) in series [6] is […]; in series [7], […]; in [8], […]; in [3] it was less than 0.3 µM; in series [4] it was less than 0.3 µM; in series [5], less than 0.3 µM. This molecule returned a 50% inhibitory concentration (IC50) in [9] of less than 300 nM.
For `O=C(NO)c1ccc(/C=N/NC(=O)c2cc(N3CCOCC3)nc(-c3cccc(O)c3)n2)cc1` [LASSBio-2208], the IC50 in [10] and in series [12] was greater than 3 µM in each case. Further, the “stability of the NAH motif” value in [11] is given as “acid‐labile”.
